Laboratory results from US20120178177A1, “Biological Components Within the Cerebrospinal Fluid” (priority 2009, published 2012).

Tests used:
IL1beta = experiment: Gene expression of inflammatory markers in rat brain after intracerebroventricular injection (RT-QPCR); assay type: in vivo; settings: LPS 50 μg/animal intracerebroventricular; rat brain (cortex, striatum, hippocampus); relative to 36B4 mRNA
Procedure: (§1) This experiment was elaborated on the basis of protocols described in previous publications (Sanna P et al., 1995). Briefly, male SD rats (225-250 g, CERJ, France) were anesthetized with pentobarbital (55 mg/kg) and positioned in a stereotaxic frame. Then, they received an intracerebroventricular injection of LPS (50 μg/animal in 3.3 μl of saline buffer) or saline (NaCl 0.9%) using a Kopf apparatus. The coordinates for the sterotaxic injections were −2.3 mm dorsal/ventral, −1.4 mm lateral, and −0.6 mm anterior/posterior from the bregma.
(§2) Total RNA was extracted using Qiagen RNA extraction kits following manufacturer's instructions. Total RNA was treated with DNase I (Ambion Inc., Austin, Tex., USA) at 37° C. for 30 minutes, followed by inactivation at 75° C. for 5 minutes. Real time quantitative PCR (RT-QPCR) assays were performed using an Applied Biosystems 7900 sequence detector. Total RNA (1 μg) was reverse transcribed with random hexamers using Taqman reverse-transcription reagents kit (Applied Biosystems) following the manufacturer's protocol. Gene expression levels were determined by Sybr green assays. 36B4 transcript was used as an internal control to normalize the variations for RNA amounts. Gene expression levels are expressed relative to 36B4 mRNA levels.
(§3) The specific primers used for the quantification were: […]

TNFalpha = experiment: as above; assay type: in vivo; settings: LPS 50 μg/animal intracerebroventricular; rat brain (cortex, striatum, hippocampus); relative to 36B4 mRNA
Procedure: as §1, §2, §3

male SD rats [1] = experiment: Quantification of rat CS-MPs in CSF by Annexin V flow cytometry after intracerebroventricular injection; assay type: in vivo; settings: LPS 50 μg/animal intracerebroventricular vs saline; CSF from cisterna magna after 24 hours; FIG. 3A
Procedure: (§4) Two groups of male SD rats (n=8 for each group) were intracerebroventricularly injected with either vehicle (Saline; NaCl 0.9%) or a test substance (Lipopolysaccharides; LPS). After 24 hours, CSF was collected directly in the cisterna magna and blood was obtained by retro-orbital puncture from each animal. CS-MPs and plasma MPs populations were prepared as described in the Materials & Methods of Example 1 and the concentrations of CS-MPs (A) and Plasma MPs (B) populations in the samples were quantified for both groups of animals by flow cytometry. Data are expressed as Mean±SEM (*: p<0.05). […] In a control experiment (C), the CSF and blood samples were collected respectively in the cisterna magna and by retro-orbital, puncture from healthy male SD rats (n=8). CS-MPs and Plasma MPs populations were prepared as described in the Materials & Methods section of Example 1 and then quantified by flow cytometry. Data are expressed as Mean±SEM (*: p<0.05). […]
(§5) The quantifications were performed using a FC500 flow cytometer (Beckman-Coulter, France) by incubating for 30 minutes in the dark each samples (30 μl) with 60 ng of His-tagged, Fluorescein-labelled Annexin V in incubation buffer (2.5 mM CaCl2, 140 mM NaCl, 10 mM HEPES pH 7.4). […] Each sample was then analyzed by flow cytometry. […]

male SD rats [2] = experiment: Quantification of rat Plasma MPs by Annexin V flow cytometry after intracerebroventricular injection; assay type: in vivo; settings: LPS 50 μg/animal intracerebroventricular vs saline; plasma after 24 hours; FIG. 3B
Procedure: as §4, §5

SH-SY5Y cells [3] = experiment: Quantification of Annexin V-positive MPs released by differentiated SH-SY5Y cells (flow cytometry); assay type: cell-based, human; settings: 24 hours treatment, Staurosporine 100 and 500 nM vs vehicle DMSO 0.1%, FIG. 5A
Procedure: (§6) The SH-SY5Y cells were maintained and differentiated in cell culture conditions as described under the Materials & Methods section of Example 2. Cells were then treated for 24 hours with Staurosporine at two different concentrations or with vehicle only. At the end of the treatment, culture medium was collected and MPs were isolated and subsequently quantified by flow cytometry. Those results are representative of several independent experiments. The resulting MPs populations have been isolated and characterized by flow cytometry (A) or by two-dimensional gel electrophoresis (B) as described in the Materials and Methods section. The three gels have been compared in an area comprised between approximately 10-60 kDa and pl 3.0 to 7.0. The boxes (named C, 1, and 2) define specific areas of interest in the captured images.
The human neuronal cell line SH-SY5Y (ATCC CRL-2266) was cultured in MEM/Ham's F12 medium (1:1) supplemented with 10% foetal bovine serum. Cells were seeded at 55,000 cells/cm^2. Cell differentiation was induced by adding 9-cis retinoic acid (5 μM) for 5 days directly to complete culture medium. After 5 days, medium was replaced with complete medium supplemented with BDNF (50 ng/ml) for additional 5 days. […]
MPs quantifications were performed by flow cytometry using fluorescein-labelled, His-tagged Annexin V, as indicated in Example 1 for CS-MPs and Plasma MPs.

SH-SY5Y cells [4] = experiment: Two-dimensional gel electrophoresis of MPs from SH-SY5Y cells; assay type: cell-based, human; settings: MPs from SH-SY5Y cells treated with Staurosporine 100 and 500 nM vs vehicle; FIG. 5B
Procedure: as §6
The human neuronal cell line SH-SY5Y (ATCC CRL-2266) was cultured in MEM/Ham's F12 medium (1:1) supplemented with 10% foetal bovine serum. Cells were seeded at 55,000 cells/cm^2. Cell differentiation was induced by adding 9-cis retinoic acid (5 μM) for 5 days directly to complete culture medium. […]
MPs populations were obtained from Staurosporine-induced SH-SY5Y cells as indicated above. […] Non-protein impurities were removed using the ReadyPrep 2D Cleanup kit prior to isoelectrofocalisation (IEF) steps. […]

Row | Compound | induction of IL1beta gene expression (IL1beta) | induction of TNFalpha gene expression (TNFalpha) | induction of CS-MP levels (male SD rats [1]) | change of Plasma MPs (male SD rats [2]) | change in Annexin V-positive MPs in cell culture medium (SH-SY5Y cells [3]) | protein content of MPs on two-dimensional gel (SH-SY5Y cells [4])
1 | Lipopolysaccharides [LPS] | 40 fold | 6 fold | 3 fold | without a simultaneous and significant increase | – | –
2 | CN[C@@H]1C[C@H]2O[C@@](C)([C@@H]1OC)n1c3ccccc3c3c4c(c5c6ccccc6n2c5c31)C(=O)NC4 [Staurosporine] | – | – | – | – | significant and dose-dependent increase | evident enrichment in proteins
